According to US4616025A, “Thiazolidine derivatives, process for the preparation and pharmaceutical compositions thereof” (Richter Gedeon Vegyeszeti Gyar RT, priority 1983, dated 1986):

Key:
[1] = system: gastric necrosis induced by absolute alcohol; experiment: Gastric necrosis induced by absolute alcohol (cytoprotection); type: in vivo, rat (female H-Wistar)
Experimental: Gastric necrosis induced by absolute alcohol
Water was allowed ad libitum. The compounds to be tested were administered orally, 30 minutes prior to the administration of 0.5 ml of ethanol/100 g of body weight through a canula. Two hours later the animals were killed by overdosing ether. Stomachs were removed and opened along the major curvature. […] Degree of the cytoprotection was expressed in % related to the control.

[2] = system: indomethacin-induced intestinal ulceration; experiment: Indomethacin-induced fatal intestinal ulceration (15 mg/kg p.o.), inflation technique; type: in vivo, rat (female H-Wistar); conditions: indomethacin 15 + 150 mg/kg p.o.
Experimental: Indomethacin-induced intestinal ulceration
Of the non-steroidal antiinflammatory agents indomethacin has not only a gastric-ulcer inducing side-effect but may also cause serious intestinal ulceration. Depending on the dose, the intestinal ulceration may be fatal, peritonitis due to intestinal perforations kills the animals.
(a) Indomethacin-induced fatal intestinal ulceration
Non-fasted, female H-Winstar rats, weighing 120-150 g each were treated orally with a 15 mg/kg dose of indomethacin (in Tween 80 suspension). […] Under these conditions it requires about 48 to 72 hours to detect intenstinal ulceration.
(§1) To evaluate the development of intestinal ulcers the so-called inflation technique by Ezer and Szporny (J. Pharm. Pharmacol. 27, 866 (1975)) was employed. By this method the progress of ulceration can be monitored quantitatively. The tensile strength of the intestinal wall expressed in mmHg weakens gradually parallel with the progress of ulceration.

[3] = system: intestinal ulceration induced by indomethacin; conditions: literature; cited from earlier work
ulceration = conditions: rheumatic patients simultaneously suffering from ulceration; cited from earlier work
[4] = system: indomethacin-induced non-fatal intestinal ulceration; experiment: Indomethacin-induced (7.5 mg/kg p.o.) non-fatal intestinal ulceration, post-treatment, inflation technique; type: in vivo, rat (H-Wistar)
Experimental: as §1
(b) Indomethacin-induced non-fatal ulceration
Non-fasted H-Wistar rats weighing 120 to 150 g each were administered 7.5 mg/kg indomethacin orally, to induce non-fatal intestinal ulceration. 4, 24 and 48 hours, respectively, after the indomethacin treatment the animals were treated with the test material orally. The animals were killed 24 hours after the last treatment and 72 hours after the ulcer-induction performed with indomethacin, respectively. Ulceration was evaluated by the inflation technique.

Compound: CN/C(=N/CCSCc1nc[nH]c1C)NC#N [Cimetidine, N-cyano-N'-methyl-N"-2-[(5-methyl-imidazole-4-yl)-methylthio]-ethyl-guanidine, reference compound]
- Cytoprotection ([1]; 6.0 mg/kg p.o.): 44%
- Length of average lesion ([1]; 6.0 mg/kg p.o.): 46.0 ± 10 mm/stomach
- Cytoprotection ([1]; 12.0 mg/kg p.o.): 24%
- Length of average lesion ([1]; 12.0 mg/kg p.o.): 63.0 ± 18 mm/stomach
- Cytoprotection ([1]; 25.0 mg/kg p.o.): 33%
- Length of average lesion ([1]; 25.0 mg/kg p.o.): 55.0 ± 12 mm/stomach
- Cytoprotection ([1]; 50.0 mg/kg p.o.): 59%
- Length of average lesion ([1]; 50.0 mg/kg p.o.): 34.0 ± 10 mm/stomach
- Cytoprotection ([1]; 100.0 mg/kg p.o.): 43%
- Length of average lesion ([1]; 100.0 mg/kg p.o.): 47.0 ± 16 mm/stomach
- Intestinal wall resistency in % of normal [2]: 21 % of normal
- T.s. of intestinal wall 72 hours after treatment [2]: 47 ± 25 mm Hg
- Indomethacin-induced intestinal ulceration, in words [3]: cannot inhibit intestinal ulceration induced by indomethacin
- Outcome of simultaneous administration of cimetidine and indomethacin (ulceration): perforation in rheumatic patients
- T.s. of intestinal wall 72 hours after indomethacin treatment ([4]; 7.5 + 3 × 50 mg/kg p.o., 4, 24, 48 hours after indomethacin): 184 ± 7 mm Hg
- T.s. of intestinal wall 72 hours after indomethacin treatment ([4]; 7.5 + 3 × 100 mg/kg p.o., 4, 24, 48 hours after indomethacin): 197 ± 10 mm Hg
- Non-fatal intestinal ulceration post-treatment, in words ([4]; post-treatment 4, 24 and 48 hours after indomethacin 7.5 mg/kg p.o.): ineffective
